Test results reported in article PMC10216581, “Homogeneous, Synthetic, Non-Saccharide Glycosaminoglycan Mimetics as Potent Inhibitors of Human Cathepsin G” (Biomolecules, 2023).
“Also recorded” adds a separate entry of the source. Marks after values point to notes of the source that are not given here.

Experiments:
[1] = test system: factor Xa; set-up: method as in PMID 9790687; details: previous study; read-out: inhibitory potency; cited from earlier work
[2] = test system: human plasma; test: Activated partial thromboplastin time (aPTT) clotting assay; type: biochemical
Procedure: The impacts of NSGM 25 on activated partial thromboplastin time (aPTT) and the prothrombin time (PT) of human plasma were measured employing a standard one-stage recalcification assay at 37 °C, as previously reported. CaCl2 and thromboplastin-D were used to initiate clotting in aPTT and PT assays, respectively, in the absence and presence of NSGM 25, and the time to clot was recorded accordingly.

[3] = test system: thrombin; set-up: method as in PMID 9790687; details: previous study; read-out: inhibitory potency; cited from earlier work
[4] = biological target: T1, Human CatG (Homo sapiens, UniProt P08311); test: Salt dependence of CatG inhibition by NSGM 25 (ionic/nonionic binding energy); type: biochemical
T1 construct: purchased Elastin Products Company (Owensville, MO, USA)
T1 sequence (P08311 21-255): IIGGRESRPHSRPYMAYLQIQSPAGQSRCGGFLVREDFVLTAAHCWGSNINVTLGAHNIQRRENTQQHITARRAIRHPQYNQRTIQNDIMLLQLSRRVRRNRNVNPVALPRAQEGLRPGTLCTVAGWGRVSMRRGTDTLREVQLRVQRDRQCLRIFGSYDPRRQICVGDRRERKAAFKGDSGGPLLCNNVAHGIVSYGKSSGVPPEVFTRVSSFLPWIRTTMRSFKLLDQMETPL
Procedure: Each KI value was calculated from the corresponding IC50 using the Cheng–Prusoff equation [43]. A double-log plot of the KI against Na^+ concentration was prepared and analyzed using the equation log KI=log KI,NONIONIC+ZψlogNa^+ . Here, the slope corresponds to the number of ion-pair interactions (Z) and the counterions released per negative charge upon ion binding (ψ = 0.8), while the intercept corresponds to the nonionic affinity (KI,NONIONIC). The contributions of ionic and nonionic binding energies to the interactions were obtained from the slope and intercept of the plot in Excel.
A fundamental point being advanced in NSGM-based mimicry is the presumed increase in hydrophobic forces contributing to binding affinity. As is well-recognized, heparin and other GAGs utilize primarily electrostatic forces in binding to proteins. […] The resolution of overall binding energy into ionic and nonionic contributions is typically achieved by performing affinity measurements as a function of the ionic strength of the buffer. According to the protein–polyelectrolyte theory, the two contributions can be resolved from a double-log plot of binding affinity against the Na^+ concentration, as defined by the equation log KI = log KI,NONIONIC + Zψ × log [Na^+], where Z represents the number of salt interactions, and ψ is the proportion of Na^+ released per anion upon ligand binding and is equal to 0.8 for heparin [55].
Figure 6 Salt dependence of CatG inhibition by NSGM 25. (A) Salt-dependent direct inhibition of CatG by NSGM 25. Data were obtained using substrate S-7388 in a chromogenic substrate hydrolysis assay. Solid lines represent sigmoidal dose–response analysis (Equation (1)) of the data to obtain IC50, ΔY%, and HS. Errors represent ± 1 S.E. (B) A double-log plot of the KI calculated using Cheng–Rusoff equation for uncompetitive inhibition against the concentration of salt.
The measured IC50s of our allosteric inhibitors are distinct from inhibition constants KI, which are thermodynamic constants. Cheng and Prusoff provided a mathematical foundation for the transformation of IC50s into KIs for uncompetitive inhibitors. In their formulation, KI is equal to IC50 × [S]/(KM + [S]), which is directly applicable to our study. Thus, it becomes possible to utilize the linear double-log analysis described above for our NSGM 25, which is an uncompetitive inhibitor. […] Linear regression yielded a slope of 2.94 and an intercept of −4.32 (Table 5). Whereas the former corresponds to an ionic binding energy of […] at 37 °C and 100 mM salt, the latter yields a nonionic binding energy of 6.12 kcal/mol. […] Such important roles of two forces have not been observed earlier. More importantly, the higher nonionic component bodes well for the discovery of second-generation inhibitors with higher selectivity.

[5] = test system: human neutrophil elastase (HNE); set-up: method as in PMID 23735578; details: previous studies; cited from earlier work
[6] = test system: factor XIIa; set-up: method as in PMID 9790687; details: previous study; read-out: inhibitory potency; cited from earlier work
[7] = linear regression of log KI versus log[Na+]

HS ([4]; 50 mM NaCl): 1.3 ± 0.4
IC50 ([4]; 50 mM NaCl): 43 ± 10 nM
ΔY ([4]; 50 mM NaCl): 87.7 ± 7.3 ^b %
IC50 ([4]; 50 mM NaCl, pH 7.4, 37 °C): 42.7 ± 10 nM
Ki ([4]; 50 mM NaCl, calculated from IC50 with Cheng-Prusoff equation (uncompetitive)): 10.9 ± 3.9 nM
HS ([4]; 100 mM NaCl): 0.7 ± 0.1
IC50 ([4]; 100 mM NaCl, pH 7.4, 37 °C): 52.6 ± 12.2 nM
Ki ([4]; 100 mM NaCl, calculated from IC50 with Cheng-Prusoff equation): 19.2 ± 5.3 nM
HS ([4]; 150 mM NaCl): 1.6 ± 0.3
ΔY ([4]; 150 mM NaCl): 74.4 ± 2.9%
IC50 ([4]; 150 mM NaCl, pH 7.4, 37 °C): 319 ± 44.5 nM
Ki ([4]; 150 mM NaCl, calculated from IC50 with Cheng-Prusoff equation): 148 ± 54 nM
HS ([4]; 200 mM NaCl): 2.0 ± 0.5
ΔY ([4]; 200 mM NaCl): 73.2 ± 4.9%
IC50 ([4]; 200 mM NaCl, pH 7.4, 37 °C): 3450 ± 517 nM
Ki ([4]; 200 mM NaCl, calculated from IC50 with Cheng-Prusoff equation): 1670 ± 480 nM
ionic binding energy ([4]; 37 °C and 100 mM salt): 4.88 kcal/mol
loss in inhibition potency ([4]; NaCl increased from 50 mM to 200 mM): ~ 80 fold
ΔGNON-IONIC (nonionic binding energy) ([4]; from intercept of double-log plot): 6.12 kcal/mol
Intercept [4, 7]: −4.32
Slope [4, 7]: 2.94
ΔGIONIC ([4]; share of binding energy): 44.4%
ΔGNON-IONIC ([4]; share of binding energy): 55.6%
Compound: O=c1c(OS(=O)(=O)O)c(-c2ccc(OS(=O)(=O)O)c(OS(=O)(=O)O)c2)oc2cc(OS(=O)(=O)O)cc(OCc3ccc(COc4cc(OS(=O)(=O)O)cc5oc(-c6ccc(OS(=O)(=O)O)c(OS(=O)(=O)O)c6)c(OS(=O)(=O)O)c(=O)c45)cc3)c12 [NSGM 25]
IC50 [1]: > 150000 nM
aPTT (EC2X) ([2]; concentration required to double the aPTT of pooled human plasma): >1000 µM
effect on aPTT clotting time ([2]; human plasma, concentration as high as 1 mM): did not impact; also recorded: did not extend
IC50 [3]: > 150000 nM
IC50 [5]: ~230 nM
IC50 [6]: > 150000 nM
